Reference: patent US7977322B2 (Vertex Pharmaceuticals Incorporated, priority 2004, dated 2011)

Biological target: T1, ΔF508-CFTR (Homo sapiens, UniProt P13569, DEL508-508)
T1 construct: expressed in transfected cells
Assay: Membrane potential optical (FRET/VIPR) assay, identification of correction compounds
Format: cell-based
Details: Table 3, assay not given; for Emax: read-out: % Activity / % Efficacy (relative efficacy)
In short: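 NIH3T3 mouse fibroblasts stably expressing ΔF508-CFTR were exposed to compound for 16 h at 37° C in serum-free medium, then loaded with DiSBAC2(3)/CC2-DMPE. After addition of 10 μM forskolin plus 20 μM genistein in Cl⁻-free gluconate bath (pH 7.4), depolarization from Cl⁻ efflux was read by FRET (VIPR II).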

T1 sequence (P13569 with tags, fused parts or gaps DEL508-508): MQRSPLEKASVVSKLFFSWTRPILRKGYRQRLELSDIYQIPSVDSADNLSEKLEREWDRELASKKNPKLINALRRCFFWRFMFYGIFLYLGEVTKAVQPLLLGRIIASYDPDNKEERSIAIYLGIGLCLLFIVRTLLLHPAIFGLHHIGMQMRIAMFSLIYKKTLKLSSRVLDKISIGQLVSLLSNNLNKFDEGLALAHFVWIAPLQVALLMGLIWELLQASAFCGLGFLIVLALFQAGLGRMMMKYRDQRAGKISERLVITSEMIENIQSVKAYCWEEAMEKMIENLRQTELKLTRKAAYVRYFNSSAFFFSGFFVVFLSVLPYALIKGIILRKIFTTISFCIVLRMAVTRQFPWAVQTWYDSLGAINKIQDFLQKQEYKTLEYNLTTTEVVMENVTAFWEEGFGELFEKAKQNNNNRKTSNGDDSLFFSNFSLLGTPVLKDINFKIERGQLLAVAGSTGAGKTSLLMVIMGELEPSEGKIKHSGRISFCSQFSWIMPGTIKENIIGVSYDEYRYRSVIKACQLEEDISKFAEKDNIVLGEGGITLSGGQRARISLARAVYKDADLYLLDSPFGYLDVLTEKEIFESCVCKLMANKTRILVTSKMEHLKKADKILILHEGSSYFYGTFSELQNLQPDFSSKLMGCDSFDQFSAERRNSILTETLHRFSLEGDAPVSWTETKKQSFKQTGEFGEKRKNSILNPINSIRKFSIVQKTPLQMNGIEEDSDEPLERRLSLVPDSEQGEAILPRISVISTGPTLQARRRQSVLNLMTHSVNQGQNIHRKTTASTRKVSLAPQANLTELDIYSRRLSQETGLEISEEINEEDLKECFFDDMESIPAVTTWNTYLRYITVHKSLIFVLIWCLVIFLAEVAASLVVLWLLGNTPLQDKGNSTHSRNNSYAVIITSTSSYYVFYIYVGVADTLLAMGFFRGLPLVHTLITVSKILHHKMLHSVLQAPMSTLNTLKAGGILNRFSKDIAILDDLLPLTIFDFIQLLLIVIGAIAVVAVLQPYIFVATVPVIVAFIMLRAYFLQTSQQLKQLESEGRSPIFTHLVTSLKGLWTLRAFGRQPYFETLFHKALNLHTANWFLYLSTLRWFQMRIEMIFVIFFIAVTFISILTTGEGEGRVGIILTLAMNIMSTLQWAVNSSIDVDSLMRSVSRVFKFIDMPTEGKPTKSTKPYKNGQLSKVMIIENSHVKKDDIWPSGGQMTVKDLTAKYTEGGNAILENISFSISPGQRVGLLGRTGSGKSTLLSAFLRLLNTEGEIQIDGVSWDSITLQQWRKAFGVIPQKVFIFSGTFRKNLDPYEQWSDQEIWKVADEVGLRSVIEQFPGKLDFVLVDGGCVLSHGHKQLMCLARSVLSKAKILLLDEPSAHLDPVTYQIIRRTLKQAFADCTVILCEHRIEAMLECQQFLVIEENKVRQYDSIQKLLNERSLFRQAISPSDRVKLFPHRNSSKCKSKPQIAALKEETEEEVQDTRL

With `C/C=C/c1cnc(NC(=O)C2(c3ccc4c(c3)OCO4)CC2)s1` [Example 386] the EC50 was 10 to 25 µM and the Emax was > 100%.
In the case of `CCCN(CC1CC1)C(c1cnc(NC(=O)C2(c3ccc4c(c3)OCO4)CC2)s1)c1ccccc1Cl` (stereo not shown) [Example 435], the EC50 is reported as < 10 µM and the Emax is reported as > 100%.
In the case of `O=C(Nc1ncc(Cc2ccccc2Cl)s1)C1(c2cccc(N3CCOCC3)c2)CC1` [Example 315], the EC50 is reported as < 10 µM and the Emax is reported as 25 to 100%.
In the case of `O=C1CC[C@@H](CO[C@H](c2cnc(NC(=O)C3(c4ccc5c(c4)OCO5)CC3)s2)c2ccccc2Cl)N1` [Example 256], the EC50 is reported as < 10 µM and the Emax is reported as > 100%.
In the case of `O=C(Nc1ncc(Cc2ccccc2Cl)s1)C1(c2ccccc2F)CCCCC1` [Example 306], the EC50 is reported as < 10 µM and the Emax is reported as > 100%.
In the case of `O=C(Nc1ncc(C(NC2CCCCC2)c2ccccc2Cl)s1)C1(c2ccc3c(c2)OCO3)CC1` (stereo not shown) [Example 411], the EC50 is reported as < 10 µM and the Emax is reported as > 100%.
With `CC(C)(C)[C@H](CO)NC(c1cnc(NC(=O)C2(c3ccc4c(c3)OCO4)CC2)s1)c1ccccc1Cl` (stereo partly shown) [Example 488] the EC50 was < 10 µM and the Emax was > 100%.
For `COc1ccc(C2(C(=O)Nc3ncc(C(c4ccccc4Cl)N4CC[C@@H](O)C4)s3)CC2)cc1OC` (stereo partly shown) [Example 451], the EC50 was < 10 µM and the Emax was > 100%.
In the case of `COc1ccc(C2(C(=O)Nc3ncc(Cc4ccccc4C#N)s3)CC2)cc1OC` [Example 61], the “% Activity / % Efficacy (relative efficacy)” value is reported as “+++ (“+++” means>100%)” and the EC50 is reported as < 10 µM.
For `CC(C)C[C@H](CO)NC(c1cnc(NC(=O)C2(c3ccc4c(c3)OCO4)CC2)s1)c1ccccc1F` (stereo partly shown) [Example 482], the EC50 was < 10 µM and the Emax was > 100%.
In the case of `CN(C)C(c1ccccc1)c1cnc(NC(=O)C2(c3ccc4c(c3)OCO4)CC2)s1` (stereo not shown) [Example 356], the EC50 is reported as 10 to 25 µM and the Emax is reported as > 100%.
For `O=C(Nc1ncc(C(NC[C@@H]2CCCO2)c2ccccc2Cl)s1)C1(c2ccc3c(c2)OCO3)CC1` (stereo partly shown) [Example 434], the EC50 was < 10 µM and the Emax was > 100%.
With `CCOc1ccccc1C(NC(CO)C(C)C)c1cnc(NC(=O)C2(c3ccc4c(c3)OCO4)CC2)s1` (stereo not shown) [Example 478] the Emax was > 100%.
With `CCOc1ccccc1C(N[C@@H](CO)CC(C)C)c1cnc(NC(=O)C2(c3ccc4c(c3)OCO4)CC2)s1` (stereo partly shown) [Example 476] the EC50 was < 10 µM.
`O=C(Nc1ncc(C(c2ccccc2)N2CCCCC2)s1)C1(c2ccc3c(c2)OCO3)CC1` (stereo not shown) [Example 371] was tested, and the EC50 was < 10 µM and the Emax was > 100%.
For `O=C(Nc1ncc(C(NCCN2CCOCC2)c2ccccc2Cl)s1)C1(c2ccc3c(c2)OCO3)CC1` (stereo not shown) [Example 188], the “% Activity / % Efficacy (relative efficacy)” value was “++ (“++” means between 25% to 100%)” and the EC50 was < 10 µM.
For `COc1ccncc1Cc1cnc(NC(=O)C2(c3ccc4c(c3)OCO4)CC2)s1` [Example 244], the “% Activity / % Efficacy (relative efficacy)” value was “+++ (“+++” means>100%)” and the EC50 was < 10 µM.
For `COc1ccc(C2(C(=O)Nc3nc(-c4cccc(OC)c4)cs3)CC2)cc1` [Example 122], the “% Activity / % Efficacy (relative efficacy)” value was “+++ (“+++” means>100%)” and the EC50 was < 10 µM.
In the case of `COc1ccc(C2(C(=O)Nc3nc(-c4cccc(Cl)c4)cs3)CC2)cc1` [Example 123], the “% Activity / % Efficacy (relative efficacy)” value is reported as “+++ (“+++” means>100%)” and the EC50 is reported as < 10 µM.
`COc1ccc(C2(C(=O)Nc3ncc(Cc4ccc(F)cc4C)s3)CC2)cc1` [Example 282] was tested, and the “% Activity / % Efficacy (relative efficacy)” value was “++ (“++” means between 25% to 100%)” and the EC50 was < 10 µM.
For `Cc1ccccc1C1(C(=O)Nc2ncc(C(c3ccccc3Cl)N3CC[C@@H](O)C3)s2)CC1` (stereo partly shown) [Example 444], the EC50 was < 10 µM and the Emax was > 100%.
In the case of `O=C(Nc1ncc(C(c2cccc3c2OC(F)(F)O3)N2CC[C@@H](O)C2)s1)C1(c2ccc3c(c2)OCO3)CC1` (stereo partly shown) [Example 496], the EC50 is reported as < 10 µM and the Emax is reported as 25 to 100%.
`CCN(CC)CCn1cc(Cc2ccccc2Cl)s/c1=N/C(=O)C1(c2ccc(OC)cc2)CC1` [Example 74] was tested, and the “% Activity / % Efficacy (relative efficacy)” value was “++ (“++” means between 25% to 100%)” and the EC50 was 25 to 60 µM.
In the case of `O=C(Nc1ncc(C(NCc2ccco2)c2ccccc2Cl)s1)C1(c2ccc3c(c2)OCO3)CC1` (stereo not shown) [Example 412], the EC50 is reported as < 10 µM and the Emax is reported as > 100%.
With `COc1ccc(C2(C(=O)Nc3ncc(Cc4cccc(F)c4Cl)s3)CC2)cc1` [Example 89] the EC50 was < 10 µM and the Emax was > 100%.
`COCCNC(c1cnc(NC(=O)C2(c3ccc4c(c3)OCO4)CC2)s1)c1ccccc1Cl` (stereo not shown) [Example 439] was tested, and the EC50 was < 10 µM and the Emax was > 100%.
`O=C(Nc1ncc(C(c2ccc(Cl)cc2)N2CC[C@@H](O)C2)s1)C1(c2ccc3c(c2)OCO3)CC1` (stereo partly shown) [Example 335] was tested, and the EC50 was < 10 µM and the Emax was > 100%.
In the case of `C[C@@H](CO)NC(c1cnc(NC(=O)C2(c3ccc4c(c3)OCO4)CC2)s1)c1ccccc1Cl` (stereo partly shown) [Example 424], the EC50 is reported as < 10 µM and the Emax is reported as > 100%.
For `COc1cccc(C(c2cnc(NC(=O)C3(c4ccc5c(c4)OCO5)CC3)s2)N2CCCC2)c1` (stereo not shown) [Example 373], the EC50 was < 10 µM and the Emax was > 100%.
`COc1ccc(C2(C(=O)Nc3nc(-c4ccc(Cl)c(Cl)c4)cs3)CC2)cc1` [Example 124] was tested, and the “% Activity / % Efficacy (relative efficacy)” value was “++ (“++” means between 25% to 100%)” and the EC50 was 25 to 60 µM.
With `O=C(Nc1ncc(C(c2ccccc2Cl)N2CC[C@@H](O)C2)s1)C1(c2ccc3c(c2)OC(F)(F)O3)CC1` (stereo partly shown) [Example 492] the EC50 was < 10 µM and the Emax was > 100%.
For `O=C(Nc1ncc(C(Cc2ccccc2Cl)N2CCC(O)CC2)s1)C1(c2ccc3c(c2)OCO3)CC1` (stereo not shown) [Example 460], the EC50 was < 10 µM and the Emax was > 100%.
With `COCCOC(c1cnc(NC(=O)C2(c3ccc4c(c3)OCO4)CC2)s1)c1ccccc1Cl` (stereo not shown) [Example 273] the EC50 was < 10 µM and the Emax was > 100%.
With `C=CCOC(c1cnc(NC(=O)C2(c3ccc4c(c3)OCO4)CC2)s1)c1ccccc1Cl` (stereo not shown) [Example 251] the EC50 was < 10 µM and the Emax was > 100%.
`CC(C)OC(c1cnc(NC(=O)C2(c3ccc4c(c3)OCO4)CC2)s1)c1ccccc1Cl` (stereo not shown) [Example 261] was tested, and the “% Activity / % Efficacy (relative efficacy)” value was “+++ (“+++” means>100%)” and the EC50 was < 10 µM.
For `O=C(Nc1ncc([C@H](O)c2ccccc2Cl)s1)C1(c2ccc3c(c2)OCO3)CC1` [Example 323], the EC50 was < 10 µM and the Emax was > 100%.
An EC50 of 10 to 25 µM and an Emax of 25 to 100% were found for `CCN(CC)C(c1ccc(S(C)(=O)=O)cc1)c1cnc(NC(=O)C2(c3ccc4c(c3)OCO4)CC2)s1` (stereo not shown) [Example 376] in this work.
In the case of `COc1ccc(C2(C(=O)Nc3ncc(Cc4cc(F)ccc4OC)s3)CC2)cc1` [Example 179], the “% Activity / % Efficacy (relative efficacy)” value is reported as “+++ (“+++” means>100%)” and the EC50 is reported as < 10 µM.
For `CCOCCCNC(c1cnc(NC(=O)C2(c3ccc4c(c3)OCO4)CC2)s1)c1ccccc1Cl` (stereo not shown) [Example 425], the EC50 was < 10 µM and the Emax was 25 to 100%.
For `CC(C)[C@H](CO)NC(c1cnc(NC(=O)C2(c3ccc4c(c3)OCO4)CC2)s1)c1ccccc1F` (stereo partly shown) [Example 483], the EC50 was < 10 µM and the Emax was > 100%.
In the case of `CCOC(=O)c1nc(NC(=O)C2(c3ccc4c(c3)OCO4)CC2)sc1Cc1ccccc1OC` [Example 202], the “% Activity / % Efficacy (relative efficacy)” value is reported as “+++ (“+++” means>100%)” and the EC50 is reported as < 10 µM.
With `COCC1CCCN1C(c1cnc(NC(=O)C2(c3ccc4c(c3)OCO4)CC2)s1)c1ccccc1OC` (stereo not shown) [Example 358] the EC50 was 10 to 25 µM and the Emax was > 100%.
`O=C(Nc1ncc(C(c2ccccc2Cl)N2CCOCC2)s1)C1(c2ccc3c(c2)OCO3)CC1` (stereo not shown) [Example 203] was tested, and the “% Activity / % Efficacy (relative efficacy)” value was “++ (“++” means between 25% to 100%)” and the EC50 was < 10 µM.
`Cc1ccccc1C(c1cnc(NC(=O)C2(c3ccc4c(c3)OCO4)CC2)s1)N1CC[C@@H](O)C1` (stereo partly shown) [Example 466] was tested, and the EC50 was 10 to 25 µM and the Emax was > 100%.
`CC(C)[C@H](CO)NC(c1cnc(NC(=O)C2(c3ccc4c(c3)OCO4)CC2)s1)c1ccccc1C(F)(F)F` (stereo partly shown) [Example 481] was tested, and the EC50 was < 10 µM and the Emax was > 100%.
With `CCCc1nc(NC(=O)C2(c3ccc4c(c3)OCO4)CC2)sc1C(=O)NCC` [Example 192] the “% Activity / % Efficacy (relative efficacy)” value was “+++ (“+++” means>100%)” and the EC50 was < 10 µM.
In the case of `COc1ccc(C2(C(=O)Nc3ncc(CCc4ccccc4OC)s3)CC2)cc1` [Example 194], the “% Activity / % Efficacy (relative efficacy)” value is reported as “++ (“++” means between 25% to 100%)” and the EC50 is reported as < 10 µM.
In the case of `Nc1ccccc1Sc1cnc(NC(=O)C2(c3ccc4c(c3)OCO4)CC2)s1` [Example 98], the “% Activity / % Efficacy (relative efficacy)” value is reported as “+++ (“+++” means>100%)” and the EC50 is reported as < 10 µM.
With `COc1ccc(C2(C(=O)Nc3nc(-c4ccccc4OC)cs3)CC2)cc1` [Example 121] the EC50 was < 10 µM and the Emax was > 100%.
With `O=C(Nc1ncc(C(c2cc(F)ccc2F)N2CC[C@@H](O)C2)s1)C1(c2ccc3c(c2)OCO3)CC1` (stereo partly shown) [Example 474] the EC50 was < 10 µM and the Emax was > 100%.
In the case of `COc1ccc(C2(C(=O)Nc3ncc(C(=O)c4ccccc4Cl)s3)CC2)cc1` [Example 44], the EC50 is reported as < 10 µM and the Emax is reported as > 100%.
An EC50 of 10 to 25 µM and an Emax of 25 to 100% were found for `O=C(Nc1ncc(Cc2ccccc2Cl)s1)C1(c2ccc(N3CCOCC3)cc2)CC1` [Example 313] in this work.
In the case of `COc1ccccc1C1(C(=O)Nc2ncc(Cc3ccccc3Cl)s2)CC1` [Example 65], the EC50 is reported as < 10 µM and the Emax is reported as > 100%.
In the case of `O=C(Nc1ncc(C(NCCC2=CCCCC2)c2ccccc2Cl)s1)C1(c2ccc3c(c2)OCO3)CC1` (stereo not shown) [Example 427], the EC50 is reported as < 10 µM and the Emax is reported as > 100%.
In the case of `COc1ccc(C2(C(=O)Nc3ncc(Sc4ccc(N)cc4)s3)CC2)cc1` [Example 96], the “% Activity / % Efficacy (relative efficacy)” value is reported as “++ (“++” means between 25% to 100%)” and the EC50 is reported as < 10 µM.
For `COc1ccccc1C(c1cnc(NC(=O)C2(c3ccc4c(c3)OCO4)CC2)s1)N1CCCCC1` (stereo not shown) [Example 349], the EC50 was < 10 µM and the Emax was > 100%.
In the case of `COc1ccccc1Cc1cnc(NC(=O)C2(c3ccc4c(c3)OCO4)CC2)o1` [Example 169], the “% Activity / % Efficacy (relative efficacy)” value is reported as “++ (“++” means between 25% to 100%)” and the EC50 is reported as < 10 µM.
With `CS(=O)(=O)c1ccc(C(c2cnc(NC(=O)C3(c4ccc5c(c4)OCO5)CC3)s2)N2CCCCC2)cc1` (stereo not shown) [Example 388] the EC50 was < 10 µM and the Emax was > 100%.
With `CC1CCc2c(sc(NC(=O)C3(c4ccc5c(c4)OCO5)CC3)c2C#N)C1` (stereo not shown) [Example 296] the EC50 was < 10 µM and the Emax was > 100%.
`CS(=O)(=O)c1ccc(C(c2cnc(NC(=O)C3(c4ccc5c(c4)OCO5)CC3)s2)N2CCCC2)cc1` (stereo not shown) [Example 385] was tested, and the EC50 was < 10 µM and the Emax was > 100%.
